Laboratory results taken from ChEMBL document CHEMBL1147554, “Novel pyrrole-containing progesterone receptor modulators” (Bioorg Med Chem Lett, 2004).
The source made the active and inactive calls. No cut-off for these calls is given here.

Columns and labels:
[1] = Displacement of [3H]progesterone at progesterone receptor of T47D cells; type: cell-based, Homo sapiens
[2] = molecular target: T1, Progesterone receptor (Rattus norvegicus) (UniProt Q63449); assay: Percentage inhibition of progesterone-induced stimulation when administered orally at 10 mg/kg in rat decidualization assay; type: functional, organism-based; set-up: dose 10 mg/kg
T1 sequence (whole entry): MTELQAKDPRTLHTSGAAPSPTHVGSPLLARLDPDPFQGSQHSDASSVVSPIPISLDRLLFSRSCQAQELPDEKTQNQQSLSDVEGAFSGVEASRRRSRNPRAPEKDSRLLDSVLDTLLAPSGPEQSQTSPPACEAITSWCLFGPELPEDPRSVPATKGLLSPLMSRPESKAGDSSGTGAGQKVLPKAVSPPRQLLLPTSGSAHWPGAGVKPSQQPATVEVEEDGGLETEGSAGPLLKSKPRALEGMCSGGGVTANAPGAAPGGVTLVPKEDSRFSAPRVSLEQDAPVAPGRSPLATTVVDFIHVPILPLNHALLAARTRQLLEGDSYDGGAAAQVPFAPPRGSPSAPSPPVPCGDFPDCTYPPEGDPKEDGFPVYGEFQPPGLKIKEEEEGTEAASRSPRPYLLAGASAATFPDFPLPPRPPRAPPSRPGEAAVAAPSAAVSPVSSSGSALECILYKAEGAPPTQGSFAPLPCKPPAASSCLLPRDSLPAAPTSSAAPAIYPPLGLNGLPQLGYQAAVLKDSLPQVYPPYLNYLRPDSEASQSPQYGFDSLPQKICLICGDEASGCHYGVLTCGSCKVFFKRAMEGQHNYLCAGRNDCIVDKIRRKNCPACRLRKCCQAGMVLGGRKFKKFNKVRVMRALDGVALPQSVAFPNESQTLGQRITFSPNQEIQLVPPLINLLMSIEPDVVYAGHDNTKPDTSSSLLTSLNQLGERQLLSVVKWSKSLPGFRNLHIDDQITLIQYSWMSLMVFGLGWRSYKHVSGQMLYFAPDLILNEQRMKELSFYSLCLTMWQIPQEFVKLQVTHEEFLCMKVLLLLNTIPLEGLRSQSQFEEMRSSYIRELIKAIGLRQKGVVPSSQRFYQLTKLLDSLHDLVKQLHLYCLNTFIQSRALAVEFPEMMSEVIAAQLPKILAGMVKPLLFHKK

[3] = molecular target: T2, Progesterone receptor (Homo sapiens) (UniProt P06401); assay: Efficacy in vitro relative to P4 in progesterone receptor induced alkaline phosphatase T47D cell assay; type: functional, cell-based
T2 sequence (whole entry): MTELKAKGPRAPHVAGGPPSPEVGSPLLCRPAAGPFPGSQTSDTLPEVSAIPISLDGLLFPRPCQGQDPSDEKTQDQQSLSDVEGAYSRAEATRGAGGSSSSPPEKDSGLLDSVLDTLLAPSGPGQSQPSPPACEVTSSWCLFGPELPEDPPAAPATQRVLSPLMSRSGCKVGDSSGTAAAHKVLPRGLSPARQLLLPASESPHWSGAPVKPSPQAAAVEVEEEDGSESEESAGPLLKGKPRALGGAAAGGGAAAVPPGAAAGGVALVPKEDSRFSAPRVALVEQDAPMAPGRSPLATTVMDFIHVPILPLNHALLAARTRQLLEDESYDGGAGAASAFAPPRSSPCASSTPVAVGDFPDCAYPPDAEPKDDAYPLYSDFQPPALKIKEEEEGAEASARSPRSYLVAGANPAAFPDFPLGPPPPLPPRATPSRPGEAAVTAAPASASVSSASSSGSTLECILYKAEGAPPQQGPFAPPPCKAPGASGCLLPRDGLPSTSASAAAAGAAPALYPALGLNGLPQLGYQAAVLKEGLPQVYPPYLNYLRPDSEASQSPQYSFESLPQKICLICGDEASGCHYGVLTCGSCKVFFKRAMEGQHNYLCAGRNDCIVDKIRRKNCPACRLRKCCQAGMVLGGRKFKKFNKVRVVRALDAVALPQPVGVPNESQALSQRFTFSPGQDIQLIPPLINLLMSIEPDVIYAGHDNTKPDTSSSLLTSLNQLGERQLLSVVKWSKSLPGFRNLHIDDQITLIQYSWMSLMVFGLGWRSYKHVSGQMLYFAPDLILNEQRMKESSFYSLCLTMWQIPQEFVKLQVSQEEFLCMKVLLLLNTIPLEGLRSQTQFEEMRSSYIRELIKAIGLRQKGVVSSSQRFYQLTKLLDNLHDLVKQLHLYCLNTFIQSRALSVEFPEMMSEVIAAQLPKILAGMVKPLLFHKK

[4] = molecular target: T3, Progesterone receptor (Homo sapiens, UniProt P06401); assay: Ability to block progesterone induced alkaline phosphatase activity in T47D human breast cancer cell line; type: functional, cell-based
T3 sequence (P06401 whole entry): T2 sequence (whole entry)

[5] = molecular target: T3, Progesterone receptor; assay: Agonistic activity as progesterone receptor induced alkaline phosphatase activity in T47D human breast cancer cells; type: functional, cell-based
[6] = molecular target: T3, Progesterone receptor; assay: Agonistic activity measures the ability to induce alkaline phosphatase in T47D human breast cancer cell line; type: functional, cell-based
[7] = Antagonist activity for glucocorticoid receptor; type: functional
[8] = molecular target: T4, Androgen receptor (Homo sapiens) (UniProt P10275); assay: Agonistic activity for androgen receptor up to 10 uM; Not active; type: functional
T4 sequence (whole entry): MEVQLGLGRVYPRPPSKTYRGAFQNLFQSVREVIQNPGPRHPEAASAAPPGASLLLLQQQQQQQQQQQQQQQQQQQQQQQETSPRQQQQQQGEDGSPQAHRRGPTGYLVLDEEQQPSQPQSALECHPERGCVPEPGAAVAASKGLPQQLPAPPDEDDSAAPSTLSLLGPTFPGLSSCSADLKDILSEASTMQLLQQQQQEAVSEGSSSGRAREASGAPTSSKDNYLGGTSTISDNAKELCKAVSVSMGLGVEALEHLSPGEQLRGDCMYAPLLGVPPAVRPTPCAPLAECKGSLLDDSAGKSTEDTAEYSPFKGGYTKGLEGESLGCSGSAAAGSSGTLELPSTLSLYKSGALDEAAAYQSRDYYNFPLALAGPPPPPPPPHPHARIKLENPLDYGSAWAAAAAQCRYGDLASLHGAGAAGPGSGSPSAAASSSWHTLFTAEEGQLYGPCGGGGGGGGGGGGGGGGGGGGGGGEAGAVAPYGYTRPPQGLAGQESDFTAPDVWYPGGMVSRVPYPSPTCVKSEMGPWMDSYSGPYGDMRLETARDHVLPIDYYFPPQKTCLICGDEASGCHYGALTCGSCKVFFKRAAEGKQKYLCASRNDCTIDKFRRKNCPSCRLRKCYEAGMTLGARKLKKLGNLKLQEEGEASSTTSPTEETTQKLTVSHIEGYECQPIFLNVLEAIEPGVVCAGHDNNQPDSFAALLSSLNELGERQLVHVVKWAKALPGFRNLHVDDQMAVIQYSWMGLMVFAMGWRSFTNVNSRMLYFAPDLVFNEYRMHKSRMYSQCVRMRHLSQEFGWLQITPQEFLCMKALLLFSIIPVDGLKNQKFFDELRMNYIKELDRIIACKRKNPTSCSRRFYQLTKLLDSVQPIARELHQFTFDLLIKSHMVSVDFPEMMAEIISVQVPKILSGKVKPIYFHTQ

[9] = Agonistic activity for glucocorticoid receptor up to 10 uM; Not active; type: functional
[10] = molecular target: T5, Androgen receptor (Homo sapiens, UniProt P10275); assay: Antagonist activity for androgen receptor; type: functional
T5 sequence (P10275 whole entry): T4 sequence (whole entry)

[11] = molecular target: T1, Progesterone receptor (Rattus norvegicus); assay: Percentage inhibition of progesterone-induced stimulation when administered orally at 3 mg/kg in rat decidualization assay; type: functional, organism-based; set-up: dose 3 mg/kg

Row | Structure (SMILES) | IC50 [1] | IC50 [4] | EC50 [6] | further results
1 | Cn1c(C#N)ccc1-c1ccc2c(c1)C(C)(C)OC(=O)N2 | 4.9 nM | > 3000 nM | – | inhibition [2]: 50%; Efficacy [3]: 80%; EC50 [5]: 1.1 nM
2 | N#Cc1ccc(-c2ccc3c(c2)C2(CCCCC2)C(=O)N3)[nH]1 | – | > 3000 nM | 60 nM | –
3 | Cn1cc(-c2ccc3c(c2)C(C)(C)OC(=O)N3)cc1C#N | 88 nM | 41 nM | > 1000 nM | –
4 | CC1(C)OC(=O)Nc2ccc(-c3ccc(C=O)[nH]3)cc21 | – | > 3000 nM | ~1000 nM | –
5 | N#Cc1cccc(-c2ccc3c(c2)C2(CCCCC2)C(=O)N3)c1 | – | – | – | IC50 [7]: > 1000 nM; Activity [8]: inactive; Activity [9]: inactive; IC50 [10]: > 1000 nM
6 | O=C1Nc2ccc(-c3ccc([N+](=O)[O-])[nH]3)cc2C12CCCCC2 | – | 36 nM | > 1000 nM | inhibition [11]: 50%
7 | Cn1c(-c2ccc3c(c2)C(C)(C)OC(=O)N3)cnc1C#N | – | > 3000 nM | 130 nM | –
8 | CC(=O)[C@H]1CC[C@H]2[C@@H]3CCC4=CC(=O)CC[C@]4(C)[C@H]3CC[C@]12C [PROGESTERONE] | 3.4 nM | – | – | –
9 | CC1(C)OC(=O)Nc2ccc(-c3cnc(C#N)o3)cc21 | – | ~3000 nM | > 1000 nM | –
10 | CC1(C)OC(=O)Nc2ccc(-c3ccc(C#N)s3)cc21 | – | 23 nM | ~1000 nM | –
11 | CC1(C)OC(=O)Nc2ccc(-c3cccc(C#N)c3)cc21 | 18 nM | 8 nM | ~1000 nM | –
12 | CCn1c(C#N)ccc1-c1ccc2c(c1)C(C)(C)OC(=O)N2 | 9.4 nM | ~3000 nM | – | inhibition [2]: 30%; Efficacy [3]: 80%; EC50 [5]: 1.8 nM
13 | CC1(C)OC(=O)Nc2ccc(-c3ccc(C#N)[nH]3)cc21 | 29 nM | > 3000 nM | 2.1 nM | –
14 | CC1(C)OC(=O)Nc2ccc(-c3[nH]ccc3C#N)cc21 | – | > 3000 nM | > 1000 nM | –
15 | Cn1c(C#N)ccc1-c1ccc2c(c1)C1(CCCCC1)C(=O)N2 | 3.4 nM | > 3000 nM | 2.8 nM | –
16 | CC1(C)OC(=O)Nc2ccc(-c3ccc[nH]3)cc21 | – | ~3000 nM | > 3000 nM | –
17 | Cn1ccc(C#N)c1-c1ccc2c(c1)C(C)(C)OC(=O)N2 | – | ~3000 nM | > 1000 nM | –
18 | CC#C[C@]1(O)CC[C@H]2[C@@H]3CCC4=CC(=O)CCC4=C3[C@@H](c3ccc(N(C)C)cc3)C[C@@]21C [MIFEPRISTONE] | 0.7 nM | – | – | –
19 | CC1(C)OC(=O)Nc2ccc(-c3ccc(C#N)o3)cc21 | – | 65 nM | ~3000 nM | –
20 | CC1(C)OC(=O)Nc2ccc(-c3c[nH]c(C#N)c3)cc21 | – | ~2000 nM | > 1000 nM | –
21 | CC1(C)OC(=O)Nc2ccc(-c3ccc([N+](=O)[O-])[nH]3)cc21 | – | 180 nM | ~1000 nM | –
22 | CC1(C)OC(=O)Nc2ccc(-c3ccc(C(=O)C(F)(F)F)[nH]3)cc21 | – | > 3000 nM | ~1000 nM | –
